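These data come from cells grown in 96-well plates and exposed to compound for 48 hours at five concentrations. At the GI50, growth is halved. TGI denotes the concentration required for complete inhibition of growth.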
How the values were obtained:
Test in all cases: inhibition of tumour cell growth, NCI panel, 48 h
DU-145 prostate = system: DU-145 prostate
SK-MEL-28 melanoma = system: SK-MEL-28 melanoma
NCI-H23 lung = system: NCI-H23 lung
HT29 colon = system: HT29 colon
HCT-15 colon = system: HCT-15 colon
ACHN renal = system: ACHN renal
IGROV1 ovarian = system: IGROV1 ovarian
MALME-3M melanoma = system: MALME-3M melanoma
RXF 393 renal = system: RXF 393 renal
SF-295 CNS = system: SF-295 CNS

Structure (SMILES) | GI50 (DU-145 prostate) [µM] | TGI (DU-145 prostate) [µM] | GI50 (SK-MEL-28 melanoma) [µM] | TGI (SK-MEL-28 melanoma) [µM] | GI50 (NCI-H23 lung) [µM] | TGI (NCI-H23 lung) [µM] | GI50 (HT29 colon) [µM] | TGI (HT29 colon) [µM] | GI50 (HCT-15 colon) [µM] | TGI (HCT-15 colon) [µM] | GI50 (ACHN renal) [µM] | TGI (ACHN renal) [µM] | GI50 (IGROV1 ovarian) [µM] | TGI (IGROV1 ovarian) [µM] | GI50 (MALME-3M melanoma) [µM] | TGI (MALME-3M melanoma) [µM] | GI50 (RXF 393 renal) [µM] | TGI (RXF 393 renal) [µM] | TGI (SF-295 CNS) [µM] | GI50 (SF-295 CNS) [µM]
COc1cc(/C=C\c2cc(OC)c(OC)c(OC)c2)cc(NC(=O)/C=C/c2cc(OC)c(OC)c(OC)c2)c1OC | > 100 | > 100 | 3.51 | > 100 | 5.27 | > 100 | 3.87 | > 100 | 5.51 | > 100 | 8.38 | > 100 | 6.61 | > 100 | 3.34 | > 100 | 4.77 | > 100 |  | 
O=C(COc1ccc(Cl)cc1)N1N=C(c2ccc(Cl)cc2)CC1(O)c1ccccc1 (centres undefined) |  |  |  | 35.3 |  | 33.9 |  | 26.3 |  | > 58.1 |  | > 100 |  | 61.6 |  | 47.4 |  |  | 82 | 
ClCc1cccc2c(CCl)cccc12 | 1.76 | 4.08 | 10.9 | 24.4 | 5.2 | 22.8 | 2.88 | 11.2 | 5.92 | 30.1 | 2.19 | 6.21 |  |  | 2.37 | 25.5 | 3.33 | 18 | 19.5 | 5.59
CC1=C(C(=O)Nc2cc(=O)n(C)c(=O)n2C)C(c2ccco2)C(C(=O)Nc2cc(=O)n(C)c(=O)n2C)=C(C)N1 |  |  |  | > 100 |  | > 100 |  | > 100 |  |  |  | > 100 |  | > 100 |  | > 100 |  | > 100 | > 100 | 
NS(=O)(=O)c1ccc(-n2nc(-c3ccc(Cl)cc3)cc2-c2cc(O)ccc2O)cc1 | 18.5 | 35.8 |  |  | 18.3 | 34.6 |  |  | 6.28 | 19.2 | 13.4 | 26.2 | 25.4 | > 100 |  |  |  |  | 33.5 | 17.6
COc1ccc(C(=S)N2CCN(c3cccc(C)c3)CC2)cc1OC | 4.59 | > 100 | 5.42 | > 100 | 9.08 | > 100 | 3.3 | > 100 | 3.77 | > 100 | 5.92 | > 100 |  |  | 3.34 | 84.4 | 6.05 | > 100 | 44.8 | 4.26
O=[N+]([O-])c1ccc(C[P+](c2ccccc2)(c2ccccc2)c2ccccc2)cc1 |  |  |  | > 100 |  | > 100 |  | > 100 |  | > 100 |  | > 100 |  | > 100 |  | > 100 |  | > 100 | > 100 | 
CCN1C(=O)N(CC)C2C1NN=c1s/c(=C\c3cccc(F)c3)c(=O)n12 (centres undefined) | 0.389 | > 100 | 13.1 | > 100 | 0.522 | > 100 | 0.0859 | > 100 | 0.0549 | > 100 | 0.196 | > 100 | 0.233 | > 100 | 0.429 | > 100 |  |  | > 100 | 0.224
CC1(C)C2CCC13C(=O)C1OC3(C2)C2C(=O)c3cc4ccccc4cc3C(=O)C12 (centres undefined) |  |  | 8.36 | > 100 | 4.75 | 32.6 | 11.3 | > 100 | 9.28 | 68.8 | 10.4 | 26.3 |  |  | 7.3 | 43.8 | 8.4 | 46.2 |  | 
CCCCCCCCCCCc1nnc(N)o1 |  |  |  | > 100 |  | > 100 |  | > 100 |  | > 100 |  | > 100 |  | > 100 |  | > 100 |  |  | > 100 | 
O=C(O)C1=C(O)C(C(=O)O)C23CCCCCCCCCCC12C(C(=O)O)C(O)=C3C(=O)O (centres undefined) |  |  |  | > 100 |  | > 100 |  | > 100 |  | > 100 |  | > 100 |  | > 100 |  | > 100 |  | > 100 | > 100 | 
COc1ccc(C23C(=O)c4ccccc4N2O[C@H]2C(=O)N(c4ccccc4)C(=O)[C@H]23)cc1 (some centres undefined) |  |  |  | > 100 |  | > 100 |  | > 100 |  | > 100 |  | > 100 |  | > 100 |  | > 100 |  | > 100 | > 100 | 
Cc1cc(CC(=O)NCCO)n(CCO)c(=O)c1 |  |  |  | > 100 |  | > 100 |  | > 100 |  |  |  | > 100 |  | > 100 |  | > 100 |  | > 100 | > 100 | 
CCOc1cccc(/C=N/N=C2\C(=O)Nc3c(Cl)cc(Cl)cc32)c1O |  |  |  | > 100 |  | > 100 |  | > 100 |  | > 100 |  | > 100 |  | > 100 |  | > 100 |  | > 100 | > 100 | 
N=C1C(c2nc3ccccc3s2)=C(O)CN1c1ccc(F)c(Cl)c1 | 36.1 | > 100 | 33.3 | > 100 | 34.8 | > 100 | 28.9 | > 100 | 0.999 | > 100 | 17.4 | 57.8 | 19.4 | 58.3 |  |  | 7.38 | 33.9 | > 100 | 18.8
O=C1N(C2CCCCC2)CC12CCCCC2 |  |  |  | > 100 |  | > 100 |  |  |  | > 100 |  | > 100 |  | > 100 |  | > 100 |  | > 100 |  | 
O=C(O)CCC(=O)N1c2ccccc2CC1c1c[nH]c2ccccc12 (centres undefined) |  |  |  | > 100 |  | > 100 |  | > 100 |  | > 100 |  | > 100 |  | > 100 |  | > 100 |  | > 100 | > 100 | 
Cc1nnn[n-]1.N.N.N.N.N.[Cl-].[Co+3] |  |  | > 100 | > 100 | > 100 | > 100 | > 100 | > 100 |  |  | > 100 | > 100 | 2.88 | 85 | > 100 | > 100 | > 100 | > 100 | > 100 | > 100
COC(=O)NC(=O)c1cn(C2OC(CO)C(O)C2O)c(=O)[nH]c1=O (centres undefined) |  |  |  | > 100 |  | > 100 |  | > 100 |  | > 100 |  | > 100 |  | > 100 |  | > 100 |  |  | > 100 | 

From PubChem BioAssay (NCI)
